In US20240294551A1 (AMGEN INC., priority 2022, published 2024):
Read-outs that look alike come from different tables or passages of the source.

What was measured:
[1] = molecular target: GDP-bound KRAS protein (aa 1-169), containing both G12D and C118A amino acid substitutions (Homo sapiens (Human), UniProt P01116, C118A/G12D); test: KRAS G12D Coupled Nucleotide Exchange Assay; format: biochemical
[2] = test system: Phosphorylation of ERK1/2 in AsPC-1 cells; test: Phospho-ERK1/2 MSD Assay; format: cell-based, human
Summary of the method: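 Read-out: MSD electrochemiluminescent detection of phosphorylated ERK1/2 in whole-cell lysates, fitted to a 4-parameter logistic curve for IC50. Prior to lysis, AsPC-1 cells (25,000 per well) received a 2 h compound dose-response at 37 °C.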

[3] = test system: AsPC-1 cells; test: AsPC-1 CTG Assay (CellTiter-Glo cell viability); format: cell-based, human; conditions: first value of the cell, read-out: G12D/C/V Cell Proliferation CTG (72 h) AsPC-1
Summary of the method: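 Human pancreatic AsPC-1 or colon SW620 cells in RPMI 1640 with 10% FBS, seeded overnight, then exposed to serially diluted compound for 72 h at 37 °C. CellTiter-Glo luminescence normalized to DMSO control; IC50 from a 4-parameter logistic model.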

[4] = molecular target: His-tagged KRAS G12D protein (Homo sapiens (Human), UniProt P01116, G12D); test: KRAS G12D TR-FRET Assay; format: binding
Summary of the method: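 His-tagged KRAS G12D (diluted to 20 nM in pH 7.4 HEPES buffer with 10 mM MgCl2 and 10 μM GDP) was preincubated with titrated compound for 30 min at room temperature. Biotinylated KRPep-2d peptide (diluted to 20 nM) was then added for 1 h, and displacement was monitored by TR-FRET.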

[5] = read-out: KRAS G12D Coupled Exchange IC50
[6] = Homo sapiens, ASPC1, 2 h, read-out: 2 h p-ERK (AsPC-1 cells), IC50
[7] = Homo sapiens, ASPC1, 72 h, AsPC-1, 72 h
[8] = read-out: KRAS G12D Binding IC50
[9] = 2 h, read-out: 2 h p-ERK (AsPC-1 cells), IC50
[10] = 2 hours compound pre-incubation, read-out: KRAS G12D Coupled Exchange
[11] = Homo sapiens, ASPC1, 2 h, read-out: 2 h p-ERK (AsPC-1 cells)
[12] = Homo sapiens, ASPC1, 72 h, AsPC-1 cells (G12D), 72 h
[13] = TR-FRET, read-out: KRAS G12D Binding

Sequence of His-tagged KRAS G12D protein (P01116 other isoform, or with tags, fused parts or gaps G12D): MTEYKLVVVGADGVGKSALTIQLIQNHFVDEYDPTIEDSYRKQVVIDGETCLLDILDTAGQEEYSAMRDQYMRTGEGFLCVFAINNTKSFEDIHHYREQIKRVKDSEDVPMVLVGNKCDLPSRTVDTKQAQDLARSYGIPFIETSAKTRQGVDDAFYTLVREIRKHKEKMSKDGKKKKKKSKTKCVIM
Sequence of GDP-bound KRAS protein (aa 1-169), containing both G12D and C118A amino acid substitutions (P01116 other isoform, or with tags, fused parts or gaps G12D/C118A): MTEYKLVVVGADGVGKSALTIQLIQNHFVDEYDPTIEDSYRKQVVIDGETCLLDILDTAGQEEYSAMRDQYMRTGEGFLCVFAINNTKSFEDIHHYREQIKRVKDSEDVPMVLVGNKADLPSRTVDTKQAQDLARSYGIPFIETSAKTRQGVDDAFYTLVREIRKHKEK

Row | Structure (SMILES) | IC50 [1, 5] | IC50 [2, 6] | IC50 [3, 7] | IC50 [4, 8] | IC50 [2, 9] | IC50 ([3]; AsPC-1, 72 h) | IC50 [1, 10] | IC50 [2, 11] | IC50 [3, 12] | IC50 [4, 13]
1 | C#CCO[C@@H]1CN2CCC[C@@]2(COc2nc3c4cnc(c(F)c4n2)-c2c(c(Cl)cc4[nH]ncc24)CCCOC(=O)O[C@@H]2COCCN3C2)C1 [Example 369, (26S)-18-Chloro-32-fluoro-4-(((2S,7aS)-2-(2-propyn-1-yloxy)tetrahydro-1H-pyrrolo[1,2-a]pyrrol-7a(5H)-yl)methoxy)-23,25,28-trioxa-1,3,5,9,14,15 hexaazahexacyclo[24.4.1.1˜6,10˜.0˜2,7˜.0˜11,19˜.0˜12,16˜]dotriaconta-2,4,6,8,10(32),11,13,16,18-nonaen-24-one] | 8 nM | 363 nM | 5000 nM | 13 nM |  |  |  |  |  | 
2 | Cc1cc2[nH]ncc2c2c1CCOC(=O)O[C@H]1C[C@]3(CCCN(C3)c3nc(OC[C@@]45CCCN4C[C@H](F)C5)nc4c(F)c-2ncc34)C1 [Example 193, (1R,3S)-32-fluoro-24-(((2R,7aS)-2-fluorotetrahydro-1H-pyrrolo[1,2-a]pyrrol-7a(5H)-yl)methoxy)-10-methyl-4,6-dioxa-13,14,19,23,25,27-hexaazaheptacyclo[25.3.1.1~1,3~.1~18,22~.0~9,17~.0~12,16~.0~21,26~]tritriaconta-9,11,14,16,18(32),19,21,23,25-nonaen-5-one] | 24 nM | 23.9 nM | 60 nM | 49 nM |  |  |  |  |  | 
3 | Fc1c2ncc3c(nc(OC[C@@]45CCCN4C[C@H](F)C5)nc13)N1CCO[C@@H](COCC[C@@H]3C[C@@H]3c3c(Cl)cc4[nH]ncc4c3-2)C1 [Example 392, (11S,13S,18R)-9-chloro-31-fluoro-25-(((2R,7aS)-2-fluorotetrahydro-1H-pyrrolo[1,2-a]pyrrol-7a(5H)-yl)methoxy)-16,19-dioxa-5,6,22,24,26,30-hexaazaheptacyclo[25.3.1.1~18,22~.0~2,10~.0~3,7~.0~11,13~.0~23,28~]dotriaconta-1(31),2,4,7,9,23,25,27,29-nonaene] |  |  |  |  |  |  | 4 nM | 31.5 nM | 291 nM | 6 nM
4 | Cc1cc2[nH]ncc2c2c1CCCCC(=O)N1CC[C@@H]3CCN(C[C@@H]31)c1nc(OC[C@@]34CCCN3C[C@H](F)C4)nc3c(F)c-2ncc13 (mixture of isomers) [Example 63] | 2 nM | 59 nM | 460 nM | 9 nM |  |  |  |  |  | 
5 | O=C1N[C@@H]2CCCCN(C2)c2nc(OC[C@@]34CCCN3C[C@H](F)C4)nc3c(F)c(ncc23)-c2c(c(Cl)cc3[nH]ncc23)CCCC1F (mixture of isomers) [Example 161] | 4 nM | 19.8 nM | 225 nM | 6 nM |  |  |  |  |  | 
6 | CN1C(=O)CCCc2c(F)ccc3cccc(c23)-c2ncc3c(nc(OC[C@@]45CCCN4C[C@H](F)C5)nc3c2F)N2CCC[C@]1(C)C2 [Example 167, (15R)-22,31-difluoro-8-(((2R,7aS)-2-fluorotetrahydro-1H-pyrrolo[1,2-a]pyrrol-7a(5H)-yl)methoxy)-15,16-dimethyl-3,7,9,11,16-pentaazahexacyclo[19.7.1.1~2,6~.1~11,15~.0~5,10~.0~25,29~]hentriaconta-1(29),2(31),3,5,7,9,21,23,25,27-decaen-17-one] | 20 nM | 1590 nM | 5000 nM | 44 nM |  |  |  |  |  | 
7 | O[C@@H]1C[C@@H]2CN(C1)c1nc(OC[C@@]34CCCN3C[C@H](F)C4)nc3c(F)c(ncc13)-c1c(c(Cl)cc3[nH]ncc13)CCCn1ncc2n1 (single isomer, unassigned) [Example 300] | 5 nM |  |  | 10 nM | 23.2 nM | 281 nM |  |  |  | 
8 | O=C1OCCCc2c(Cl)cc3[nH]ncc3c2-c2ncc3c(nc(OC[C@@]45CCCN4C[C@H](F)C5)nc3c2F)N2CCC[C@]3(C2)C[C@H](C3)O1 [Example 323, (1R,3S)-11-chloro-33-fluoro-25-(((2R,7aS)-2-fluorotetrahydro-1H-pyrrolo[1,2-a]pyrrol-7a(5H)-yl)methoxy)-4,6-dioxa-14,15,20,24,26,28-hexaazaheptacyclo[26.3.1.1~1,3~.1~19,23~.0~10,18~.0~13,17~.0~22,27~]tetratriaconta-10,12,15,17,19(33),20,22,24,26-nonaen-5-one] | 2 nM |  |  | 5 nM | 30.5 nM | 318 nM |  |  |  | 
9 | Cc1cc2[nH]ncc2c2c1CCCOC(=O)CC1CCCN(C1)c1nc(OC[C@@]34CCCN3C[C@H](F)C4)nc3c(F)c-2ncc13 (stereo partly drawn) [Example 39] | 8 nM |  |  | 12 nM | 16 nM | 191 nM |  |  |  | 

Second part, the compound after the results:

Row | IC50 [1, 5] | IC50 [2, 6] | IC50 [3, 7] | IC50 [4, 8] | IC50 [2, 9] | IC50 ([3]; AsPC-1, 72 h) | IC50 [1, 10] | IC50 [2, 11] | IC50 [3, 12] | IC50 [4, 13] | Structure (SMILES)
10 | 23 nM |  |  | 47 nM | 332 nM | 3060 nM |  |  |  |  | Cc1c2ncc3c(nc(OC[C@@]45CCCN4C[C@H](F)C5)nc13)N1CCOC[C@H](C1)OC(=O)OCCCc1c(Cl)cc3[nH]ncc3c1-2 (atropisomer, axis not shown) [Example 342, (26S)-18-chloro-4-(((2R,7aS)-2-fluorotetrahydro-1H-pyrrolo[1,2-a]pyrrol-7a(5H)-yl)methoxy)-32-methyl-23,25,28-trioxa-1,3,5,9,14,15-hexaazahexacyclo[24.4.1.1~6,10~.0~2,7~.0~11,19~.0~12,16~]dotriaconta-2,4,6,8,10(32),11,13,16,18-nonaen-24-one]
11 |  |  |  |  |  |  | 4 nM | 32.7 nM | 127 nM | 5 nM | Fc1c2ncc3c(nc(OC[C@@]45CCCN4C[C@H](F)C5)nc13)N1CCO[C@@H](Cc3ncc(o3)CCc3c(Cl)cc4[nH]ncc4c3-2)C1 [Example 374]
12 | 16 nM | 1780 nM | 5000 nM | 32 nM |  |  |  |  |  |  | O=C1CCCc2c(Cl)cc3[nH]ncc3c2-c2ncc3c(nc(OC[C@@]45CCCN4C[C@H](F)C5)nc3c2F)N2CCCC3(CC(C3)N1)C2 [Example 274]
13 | 3 nM | 4 nM | 60 nM | 4 nM |  |  |  |  |  |  | O=C1C[C@H]2CN(CCO2)c2nc(OC[C@@]34CCCN3C[C@H](F)C4)nc3c(F)c(ncc23)-c2c(c(Cl)cc3[nH]ncc23)CCCO1 [Example 79, (17S)-9-chloro-30-fluoro-24-(((2R,7aS)-2-fluorotetrahydro-1H-pyrrolo[1,2-a]pyrrol-7a(5H)-yl)methoxy)-14,18-dioxa-5,6,21,23,25,29-hexaazahexacyclo[24.3.1.1~17,21~.0~2,10~.0~3,7~.0~22,27~]hentriaconta-1(30),2,4,7,9,22,24,26,28-nonaen-15-one]
14 | 4 nM | 77 nM | 809 nM | 6 nM |  |  |  |  |  |  | Cc1cc2[nH]ncc2c2c1CCCCC(=O)O[C@]1(CF)CCCN(C1)c1nc(OC[C@@]34CCCN3C[C@H](F)C4)nc3c(F)c-2ncc13 [Example 33, (17R)-30-fluoro-17-(fluoromethyl)-24-(((2R,7aS)-2-fluorotetrahydro-1H-pyrrolo[1,2-a]pyrrol-7a(5H)-yl)methoxy)-9-methyl-16-oxa-5,6,21,23,25,29-hexaazahexacyclo[24.3.1.1~17,21~.0~2,10~.0~3,7~.0~22,27~]hentriaconta-1(30),2,4,7,9,22,24,26,28-nonaen-15-one]
15 | 9 nM |  |  | 12 nM | 200 nM | 1950 nM |  |  |  |  | O=C1OCCCc2c(Cl)cccc2-c2ncc3c(nc(OC[C@@]45CCCN4C[C@H](F)C5)nc3c2F)N2CCOC[C@H](C2)O1 [Example 186, (23S)-15-chloro-29-fluoro-4-(((2R,7aS)-2-fluorotetrahydro-1H-pyrrolo[1,2-a]pyrrol-7a(5H)-yl)methoxy)-20,22,25-trioxa-1,3,5,9-tetraazapentacyclo[21.4.1.1~6,10~.0~2,7~.0~11,16~]nonacosa-2,4,6,8,10(29),11,13,15-octaen-21-one]
